Our source for the EC50 and IC50 values is patent US8524716B2, “Macrocyclic indoles as hepatitis C virus inhibitors” (priority 2007, dated 2013).

In assay [1] the test system is HCV replicons (NS3-NS5B regions of HCV type 1b) in Huh-Luc cells. Briefly: HCV replicon assay in Huh-7 luc/neo (Huh-Luc) cells, luciferase readout. The assay is classed as cell-based. The note with it: three days incubation, luciferase activity. From the text:
The compounds of formula (I) were examined for activity in the inhibition of HCV RNA replication in a cellular assay. […] The cellular assay was based on a bicistronic expression construct, as described by Lohmann et al. (1999) Science vol. 285 pp. 110-113 with modifications described by Krieger et al. (2001) Journal of Virology 75: 4614-4624, in a multi-target screening strategy. In essence, the method was as follows.
The assay utilized the stably transfected cell line Huh-7 luc/neo (hereafter referred to as Huh-Luc). This cell line harbors an RNA encoding a bicistronic expression construct comprising the wild type NS3-NS5B regions of HCV type 1b translated from an Internal Ribosome Entry Site (IRES) from encephalomyocarditis virus (EMCV), preceded by a reporter portion (firefly luciferase), and a selectable marker portion (neo^R, neomycine phosphotransferase). The construct is bordered by 5′ and 3′ NTRs (non-translated regions) from HCV type 1b. Continued culture of the replicon cells in the presence of G418 (neo^R) is dependent on the replication of the HCV RNA. The stably transfected replicon cells that express HCV RNA, which replicates autonomously and to high levels, encoding inter alia luciferase, were used for screening the antiviral compounds.
The replicon cells were plated in 384 well plates in the presence of the test and control compounds which were added in various concentrations. Following an incubation of three days, HCV replication was measured by assaying luciferase activity (using standard luciferase assay substrates and reagents and a Perkin Elmer ViewLux™ ultraHTS microplate imager). […] The inhibitory activity of the compound on luciferase activity was monitored on the Huh-Luc cells, enabling a dose-response curve for each test compound. EC50 values were then calculated, which value represents the amount of the compound required to decrease the level of detected luciferase activity by 50%, or more specifically, the ability of the genetically linked HCV replicon RNA to replicate.

A further assay deals with HCV NS5B (Hepatitis C virus genotype 1b (strain HC-J4), UniProt O92972). Briefly: biochemical. It counts as biochemical. As to the method: The cDNA encoding NS5B amino acid 1-570 (HC-J4, genotype 1b, pCV-J4L6S, genebank accession number AF054247) was subcloned into the Nhe I and Xho I restriction sites of pET-21b. Expression of the subsequent His-tagged C-terminal 21 amino acid deleted NS5B was performed as follows:
The NS5B expression construct was transformed into E. coli BL21(DE3) (Novagen, Madison, Wis.). Five milliliters of LB-medium supplemented with ampicillin (50 μg/mL) was inoculated with one colony. When the pre-culture reached an optical density of 0.6 measured at 600 nm, it was transferred to fresh LB-medium supplemented with ampicillin, at a ratio of 1:200. Cells were grown to an optical density at 600 nm of 0.6, after which the expression cultures were shifted to a growth temperature of 20° C. following induction with isopropyl-1-thio-β-D-galactopyranoside and MgCl2 at a final concentration of 0.4 mM and 10 μM, respectively. After ten hours of induction, cells were harvested by centrifugation and resuspended in 20 mM Tris-HCl, pH 7.5, 300 mM NaCl, 10% glycerol, 0.1% NP40, 4 mM MgCl2, 5 mM DTT supplemented with EDTA-free Complete Protease Inhibitor (Roche, Basel, Switzerland). Cell suspensions were disrupted by sonication and incubated with 10-15 mg/L of DNase I (Roche, Basel, Switzerland) for 30 minutes. Cell debris was removed through ultracentrifugation at 30,000×g for 1 hour and clarified cell lysate was flash frozen and stored at −80° C. prior to purification.
Clarified cell lysate was thawed and subsequently loaded onto a 5 mL pre-packed HisTrap FF column equilibrated with 25 mM HEPES, pH 7.5, 500 mM NaCl, 10% glycerol and 5 mM DTT. Proteins were eluted with 500 mM imidazole at a flow rate of 1 mL/min. Fractions containing the protein of interest were applied onto a pre-packed 26/10 HiPrep Desalting Column equilibrated with 25 mM HEPES, pH 7.5, 150 mM NaCl, 10% glycerol and 5 mM DTT. The buffer-exchanged NS5B peak was then applied onto a 20 mL Poly-U Sepharose column. Protein was eluted with an increasing salt gradient and fractions collected. Protein purity was assessed on Nu-PAGE pre-cast gels (Invitrogen, Carlsbad, Calif.). Purified NS5B samples were concentrated using Centri-Prep concentrators (Millipore, Billerica, Mass., USA) and protein concentrations were determined by Bradford assay (Pierce, Rockford, Ill., USA).
Measurement of HCV NS5B polymerization activity was performed by evaluating the amount of radio labeled GTP incorporated by the enzyme in a newly synthesized RNA using heteropolymeric RNA template/primer. The high-throughput RNA dependent RNA polymerase (RdRp) assay was carried out in 384-well plates using 100 nM enzyme, 300 nM 5′-biotinylated oligo(rG13)/poly(rC) primer-template, 600 nM of GTP, and 0.1 μCi of [^3H]GTP in 25 mM Tris-HCl, pH 7.5, 5 mM MgCl2, 25 mM KCl, 17 mM NaCl and 3 mM of dithiothreitol (DTT). Test compounds were dissolved in DMSO. The test compounds were added to the preformed polymerase-template complex, and incubated at room temperature for 15 min before the addition of nucleoside triphosphates (NTP). The 30 μl reaction was terminated after 2 h at 25° C. upon addition of 30 μl A PVT-SPA beads (Amersham Biosciences RPNQ0009, 5 mg/ml in 0.5 M EDTA).

Where [2] appears, read: 100 nM enzyme, [3H]GTP incorporation, 2 h at 25° C., read-out: IC50 (μM) Enzymatic assay.

Read-outs that look alike come from different tables or passages of the source. A value given as a limit tells only on which side of the number the result lay.

HCV NS5B, sequence (O92972 2420-3010 limits assumed): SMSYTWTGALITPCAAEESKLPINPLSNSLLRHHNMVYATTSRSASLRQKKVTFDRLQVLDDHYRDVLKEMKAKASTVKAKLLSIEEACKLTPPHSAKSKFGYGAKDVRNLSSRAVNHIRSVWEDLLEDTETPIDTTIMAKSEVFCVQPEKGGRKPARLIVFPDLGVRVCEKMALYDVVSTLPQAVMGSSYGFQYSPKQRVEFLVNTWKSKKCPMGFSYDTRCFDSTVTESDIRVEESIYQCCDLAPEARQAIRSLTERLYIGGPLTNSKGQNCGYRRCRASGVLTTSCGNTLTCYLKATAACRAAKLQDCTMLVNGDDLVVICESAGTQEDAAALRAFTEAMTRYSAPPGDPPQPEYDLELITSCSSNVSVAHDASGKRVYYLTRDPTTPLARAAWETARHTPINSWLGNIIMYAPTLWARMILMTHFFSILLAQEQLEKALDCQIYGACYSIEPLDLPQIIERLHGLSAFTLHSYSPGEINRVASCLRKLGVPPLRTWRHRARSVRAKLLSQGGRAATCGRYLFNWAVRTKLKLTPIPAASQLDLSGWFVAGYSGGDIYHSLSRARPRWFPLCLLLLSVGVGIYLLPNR

The EC50 is the concentration at which the effect is half-maximal. With “17-Cyclohexyl-18-furan-3-yl-9-methyl-10,10-dioxo-10λ^6-thia-1,4,9,11-tetraaza-tricyclo[11.5.2.016,19]icosa-13(20),14,16(19),17-tetraene-3,12-dione [Cpd 28]”, the EC50 in assay [1] was 1.58 µM.
One may read the IC50 as the concentration needed to halve the response being measured. Regarding `O=C1Cn2c(-c3ccoc3)c(C3CCCCC3)c3ccc(cc32)C(=O)NCC/C=C\CCN1` [Cpd 1, 17-cyclohexyl-18-(furan-3-yl)-1,4,11-triaza-tricyclo-[11.5.2.0^16,19]icosa-7,13(20),14,16(19),17-pentaene-3,12-dione], the IC50 on HCV NS5B (setting [2]) came to 2.2 µM. The compound also displayed an EC50 in assay [1] (Hepatitis C virus, Huh-7, 72 h) of 3.4 µM.
Turning to `O=C1Cn2c(-c3ccoc3)c(C3CCCCC3)c3ccc(cc32)C(=O)NCCCCCCN1` [Cpd 2, 17-Cyclohexyl-18-(furan-3-yl)-1,4,11-triaza-tricyclo[11.5.2.0^16,19]icosa-13(20),14,16(19),17-tetraene-3,12-dione], the IC50 at HCV NS5B (setting [2]) stood at 9.5 µM. In assay [1] (Hepatitis C virus, Huh-7, 72 h), this compound had an EC50 of 4.3 µM.
Consider `CS(=O)(=O)N1CCN(c2ccc([N+](=O)[O-])cc2COc2ccc(-c3c(C4CCCCC4)c4ccc5cc4n3CC(=O)NCC/C=C\CCNC5=O)cc2)CC1` [Cpd 3, 17-cyclohexyl-18-[4-[2-(4-methanesulfonylpiperazin-1-yl)-5-nitrobenzyloxy]phenyl]-1,4,11-triazatricyclo[11.5.2.0^16,19]icosa-7,13(20),14,16(19),17-pentaene-3,12-dione], for which the IC50 on HCV NS5B (setting [2]) was 1.1 µM. A half-maximal response in assay [1] (Hepatitis C virus, Huh-7, 72 h) (EC50) required 0.72 µM.
Regarding `CS(=O)(=O)N1CCN(c2ccc(N)cc2COc2ccc(-c3c(C4CCCCC4)c4ccc5cc4n3CC(=O)NCC/C=C\CCNC5=O)cc2)CC1` [Cpd 4, 17-cyclohexyl-18-[4-[2-(4-methanesulfonylpiperazin-1-yl)-5-amino-benzyloxy]phenyl]-1,4,11-triazatricyclo[11.5.2.0^16,19]icosa-7,13(20),14,16(19),17-pentaene-3,12-dione], the IC50 at HCV NS5B (setting [2]) was 0.27 µM. In assay [1] (Hepatitis C virus, Huh-7, 72 h), this compound had an EC50 of 0.24 µM.
Turning to `CC(=O)Nc1ccc(N2CCN(S(C)(=O)=O)CC2)c(COc2ccc(-c3c(C4CCCCC4)c4ccc5cc4n3CC(=O)NCC/C=C\CCNC5=O)cc2)c1` [Cpd 5, 17-cyclohexyl-18-[4-[2-(4-methanesulfonylpiperazin-1-yl)-5-acetylamino-benzyloxy]phenyl]-1,4,11-triazatricyclo[11.5.2.0^16,19]icosa-7,13(20),14,16(19),17-pentaene-3,12-dione], the IC50 on HCV NS5B (setting [2]) worked out at 0.29 µM. This compound also came in with an EC50 in assay [1] (Hepatitis C virus, Huh-7, 72 h) of 0.58 µM.
Consider `O=C1Cn2c(-c3ccc(O)cc3)c(C3CCCCC3)c3ccc(cc32)C(=O)NCCCCCCN1` [Cpd 8], for which the IC50 at HCV NS5B (setting [2]) was found to be 2.79 µM. In addition, the EC50 in assay [1] was greater than 32 µM.
`COc1ccc(Br)c(COc2ccc(-c3c(C4CCCCC4)c4ccc5cc4n3CC(=O)NCCCCCCNC5=O)cc2)c1` [Cpd 9, 18-[4-(2-bromo-5-methoxybenzyloxy)phenyl]-17-cyclohexyl-1,4,11-triaza-tricyclo[11.5.2.0^16,19]icosa-13(20),14,16(19),17-tetraene-3,12-dione]: the IC50 on HCV NS5B (setting [2]) came to 13 µM. Further, the EC50 in assay [1] (Hepatitis C virus, Huh-7, 72 h) is 4.8 µM.
The compound `COc1ccc(-c2ccc(Cl)cc2)c(COc2ccc(-c3c(C4CCCCC4)c4ccc5cc4n3CC(=O)NCCCCCCNC5=O)cc2)c1` [Cpd 10, 18-[4-(4′-chloro-4-methoxybiphenyl-2-ylmethoxy)phenyl]-17-cyclohexyl-1,4,11-triazatricyclo[11.5.2.0^16,19]icosa-13(20),14,16(19),17-tetraene-3,12-dione] yielded an IC50 against HCV NS5B of 6.9 µM. The EC50 in assay [1] (Hepatitis C virus, Huh-7, 72 h) was greater than 32 µM.
Turning to `O=C1Cn2c(-c3ccc(OCc4cc(N5CCCC5=O)ccc4N4CCOCC4)cc3)c(C3CCCCC3)c3ccc(cc32)C(=O)NCC/C=C\CCN1` [Cpd 11, 17-Cyclohexyl-18-[4-[2-morpholin-4-yl-5-(2-oxo-pyrrolidin-1-yl)-benzyloxy]-phenyl]-1,4,11-triaza-tricyclo[11.5.2.0^16,19]icosa-7,13(20),14,16(19),17-pentaene-3,12-dione], the IC50 at HCV NS5B (setting [2]) turned out to be 0.45 µM. This compound had a half-maximal effective concentration (EC50) in assay [1] (Hepatitis C virus, Huh-7, 72 h) of 0.69 µM.
As to `CS(=O)(=O)N1CCN(c2ccc(N3CCCC3=O)cc2COc2ccc(-c3c(C4CCCCC4)c4ccc5cc4n3CC(=O)NCC/C=C\CCNC5=O)cc2)CC1` [Cpd 12, 17-Cyclohexyl-18-[4-[2-(4-methanesulfonyl-piperazin-1-yl)-5-(2-oxo-pyrrolidin-1-yl)-benzyloxy]-phenyl]-1,4,11-triaza-tricyclo[11.5.2.0^16,19]icosa-7,13(20),14,16(19),17-pentaene-3,12-dione], the IC50 on HCV NS5B (setting [2]) worked out at 0.36 µM. This compound gave an EC50 in assay [1] (Hepatitis C virus, Huh-7, 72 h) of 0.27 µM.
On to `O=C1Cn2c(-c3ccc(OCc4cc(N5CCCC5=O)ccc4N4CCOCC4)cc3)c(C3CCCCC3)c3ccc(cc32)C(=O)NS(=O)(=O)CC=CCCN1` [Cpd 13, 17-Cyclohexyl-18-[4-[2-morpholin-4-yl-5-(2-oxo-pyrrolidin-1-yl)-benzyloxy]-phenyl]-10,10-dioxo-10λ^6-thia-1,4,11-triaza-tricyclo[11.5.2.0^16,19]icosa-7,13(20),14,16(19),17-pentaene-3,12-dione], for which the IC50 at HCV NS5B is 0.04 µM. The compound also yielded a 50% effective concentration (EC50) in assay [1] (Hepatitis C virus, Huh-7, 72 h) of 2.36 µM.
In turn, `CN1C/C=C\CCNC(=O)Cn2c(-c3ccc(Cl)cc3)c(C3CCCCC3)c3ccc(cc32)C(=O)NS1(=O)=O` [Cpd 20, 19-(4-Chloro-phenyl)-18-cyclohexyl-10-methyl-11,11-dioxo-11λ^6-thia-1,4,10,12-tetraaza-tricyclo[12.5.2.017,20]henicosa-7,14(21),15,17(20),18-pentaene-3,13-dione] gave an EC50 in assay [1] (Hepatitis C virus, Huh-7, 72 h) of 0.61 µM.
Compound `CN1CCCCCNC(=O)Cn2c(-c3ccccc3)c(C3CCCCC3)c3ccc(cc32)C(=O)NS1(=O)=O` [Cpd 22, 18-Cyclohexyl-10-methyl-11,11-dioxo-19-phenyl-11λ^6-thia-1,4,10,12-tetraaza-tricyclo[12.5.2.017,20]henicosa-14(21),15,17(20),18-tetraene-3,13-dione] gave an EC50 in assay [1] (Hepatitis C virus, Huh-7, 72 h) of 0.43 µM.
Still for that read-out and setting: as for `CN1CCCCCNC(=O)Cn2c(-c3ccoc3)c(C3CCCCC3)c3ccc(cc32)C(=O)NS1(=O)=O` [Cpd 30, 18-Cyclohexyl-19-furan-3-yl-10-methyl-11,11-dioxo-11λ^6-thia-1,4,10,12-tetraaza-tricyclo[12.5.2.017,20]henicosa-14(21),15,17(20),18-tetraene-3,13-dione], the figure is 0.79 µM.
